Entries after “also recorded” stand apart in the source; their conditions may differ. Like-named read-outs stand apart in the source and are kept apart here.
Legend:
[1] = test system: Vaccinia virus (WR strain); parameters: species or system mice; details: mouse, in vivo
[2] = test system: Vaccinia virus (WR strain); parameters: species or system mice; details: mouse, in vivo; remark: listed apart in the source
[3] = test system: vaccinia virus; assay type: in vivo, mice; details: more vigorous rubbing in; treatment continued until death

## benzalkonium chloride
[1]
  Survivors/Total: 0/10
  mean day of death / survival time compared to water: longer than those respective groups treated with water, but the results were not statistically significant; also recorded: slightly longer survival times
  protection from death: No protection from death
[2]
  Survivors/Total: 0/10
  protection from death: No protection from death
[3]
  benefit in terms of survival or suppressing lesion severity: no benefit

From patent publication US8173709B2, “Anti-infective methods for treating pathogen-induced disordered tissues” (priority 1999, dated 2012)
